Experimental data: PubChem BioAssay (NCI)
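A five-concentration, 48-hour dose response in 96-well plates underlies each endpoint, interpolated linearly between surrounding concentrations. The concentration for 50% growth inhibition is given as GI50. TGI denotes the concentration required for complete inhibition of growth.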

Legend:
Assay in all cases: inhibition of tumour cell growth, NCI panel, 48 h
[1] = test system: 786-0 renal
[2] = test system: A498 renal
[3] = test system: A549 NSCLC
[4] = test system: ACHN renal
[5] = test system: BT-549 breast
[6] = test system: CAKI-1 renal
[7] = test system: CCRF-CEM leukemia
[8] = test system: COLO 205 colon
[9] = test system: DU-145 prostate
[10] = test system: EKVX NSCLC
[11] = test system: HCC-2998 colon
[12] = test system: HCT-116 colon
[13] = test system: HCT-15 colon
[14] = test system: HL-60(TB) leukemia
[15] = test system: HOP-62 NSCLC
[16] = test system: HOP-92 NSCLC
[17] = test system: HS 578T breast
[18] = test system: HT29 colon
[19] = test system: IGROV1 ovarian
[20] = test system: K-562 leukemia
[21] = test system: KM12 colon
[22] = test system: LOX IMVI melanoma
[23] = test system: M14 melanoma
[24] = test system: MALME-3M melanoma
[25] = test system: MCF7 breast
[26] = test system: MDA-MB-231 breast
[27] = test system: MDA-MB-468 breast
[28] = test system: MOLT-4 leukemia
[29] = test system: NCI-H226 lung
[30] = test system: NCI-H23 lung
[31] = test system: NCI-H460 lung
[32] = test system: NCI-H522 lung
[33] = test system: OVCAR-3 ovarian
[34] = test system: OVCAR-4 ovarian
[35] = test system: OVCAR-5 ovarian
[36] = test system: OVCAR-8 ovarian
[37] = test system: PC-3 prostate
[38] = test system: RPMI-8226 leukemia
[39] = test system: RXF 393 renal
[40] = test system: SF-268 CNS
[41] = test system: SF-295 CNS
[42] = test system: SF-539 CNS
[43] = test system: SK-MEL-2 melanoma
[44] = test system: SK-MEL-28 melanoma
[45] = test system: SK-MEL-5 melanoma
[46] = test system: SK-OV-3 ovarian
[47] = test system: SN12C renal
[48] = test system: SNB-19 CNS
[49] = test system: SNB-75 CNS
[50] = test system: SR leukemia
[51] = test system: SW-620 colon
[52] = test system: T-47D breast
[53] = test system: TK-10 renal
[54] = test system: U251 CNS
[55] = test system: UACC-257 melanoma
[56] = test system: UACC-62 melanoma
[57] = test system: UO-31 renal

With `Oc1ccc(/C=C2\CCCc3cc4ccc(O)cc4[o+]c32)c(O)c1` the GI50 [1] was 8.21 µM, the TGI [1] was > 100 µM and the GI50 [2] was > 100 µM. The TGI [2] was > 100 µM, the GI50 [3] was 44.2 µM and the TGI [3] was > 100 µM. For the same compound, the GI50 [4] was 6.1 µM, the TGI [4] was > 100 µM and the GI50 [5] was 5.75 µM. The TGI [5] was > 100 µM, the GI50 [6] was 5.25 µM and the TGI [6] was > 100 µM. For the same compound, the GI50 [7] was 3.56 µM, the TGI [7] was > 100 µM and the GI50 [8] was 15.2 µM. For the same compound, the TGI [8] was 44.5 µM, the GI50 [9] was 22.2 µM and the TGI [9] was > 100 µM. The GI50 [10] was 8.82 µM, the TGI [10] was > 100 µM and the GI50 [11] was 6.29 µM. The TGI [11] was 20.4 µM, the GI50 [12] was 3.82 µM and the TGI [12] was > 100 µM. For the same compound, the GI50 [13] was 3.27 µM, the TGI [13] was 11.2 µM and the GI50 [14] was 2.65 µM. The TGI [14] was 57.3 µM, the GI50 [15] was 44.2 µM and the TGI [15] was > 100 µM. The GI50 [16] was 6.43 µM, the TGI [16] was > 100 µM and the GI50 [17] was 2.68 µM. The TGI [17] was > 100 µM, the GI50 [18] was 17.9 µM and the TGI [18] was 46.6 µM. The GI50 [19] was 18.9 µM, the TGI [19] was 78.1 µM and the GI50 [20] was 4.03 µM. The TGI [20] was > 100 µM, the GI50 [21] was 3.3 µM and the TGI [21] was 13.7 µM. It also gave a GI50 [22] of 2.95 µM, a TGI [22] of 12.5 µM and a GI50 [23] of 6.7 µM. The TGI [23] was > 100 µM, the GI50 [24] was 4.77 µM and the TGI [24] was 40.3 µM. The GI50 [25] was 2.68 µM, the TGI [25] was 70.8 µM and the GI50 [26] was 3.99 µM. The TGI [26] was 33.1 µM, the GI50 [27] was 1.99 µM and the TGI [27] was 6.46 µM. For the same compound, the GI50 [28] was 3.06 µM, the TGI [28] was > 100 µM and the GI50 [29] was 26.6 µM. The TGI [29] was > 100 µM, the GI50 [30] was 11.7 µM and the TGI [30] was > 100 µM. The GI50 [31] was 5.14 µM, the TGI [31] was 42.2 µM and the GI50 [32] was 2.51 µM. It also gave a TGI [32] of 11.2 µM, a GI50 [33] of 3.39 µM and a TGI [33] of 14.7 µM. The GI50 [34] was 16.5 µM, the TGI [34] was > 100 µM and the GI50 [35] was 53.1 µM. For the same compound, the TGI [35] was > 100 µM, the GI50 [36] was 6.91 µM and the TGI [36] was > 100 µM. For the same compound, the GI50 [37] was 4.09 µM, the TGI [37] was > 100 µM and the GI50 [38] was 4.93 µM. For the same compound, the TGI [38] was > 100 µM, the GI50 [39] was 2.26 µM and the TGI [39] was 10.8 µM. For the same compound, the GI50 [40] was 6.81 µM, the TGI [40] was > 100 µM and the GI50 [41] was 19.7 µM. For the same compound, the TGI [41] was > 100 µM, the GI50 [42] was 7.04 µM and the TGI [42] was 42 µM. The GI50 [43] was 12.2 µM, the TGI [43] was 58.6 µM and the GI50 [44] was 12.3 µM. The TGI [44] was 52.4 µM, the GI50 [45] was 5.74 µM and the TGI [45] was 19.9 µM. The GI50 [46] was 27.2 µM, the TGI [46] was > 100 µM and the GI50 [47] was 29.9 µM. For the same compound, the TGI [47] was > 100 µM, the GI50 [48] was 24.9 µM and the TGI [48] was > 100 µM. It also gave a GI50 [49] of 2.88 µM, a TGI [49] of 65.6 µM and a GI50 [50] of 3.09 µM. For the same compound, the TGI [50] was > 100 µM, the GI50 [51] was 3.87 µM and the TGI [51] was 69.2 µM. For the same compound, the GI50 [52] was 5.23 µM, the TGI [52] was > 100 µM and the GI50 [53] was 47.2 µM. For the same compound, the TGI [53] was > 100 µM, the GI50 [54] was 4.16 µM and the TGI [54] was 41.3 µM. For the same compound, the GI50 [55] was 15.3 µM, the TGI [55] was > 100 µM and the GI50 [56] was 5.02 µM. For the same compound, the TGI [56] was 26 µM, the GI50 [57] was 7.23 µM and the TGI [57] was 59.9 µM.
